Measurements from patent US20220227737A1, “NOVEL OXALYL PIPERAZINES ACTIVE AGAINST THE HEPATITIS B VIRUS (HBV)” (AiCuris GmbH & Co. KG, priority 2019, published 2022).

How the values were obtained:
[1] = biological target: T1, C-terminal truncated core protein (HBV core dimer, BODIPY-FL labelled) (UniProt P03146); assay: Biochemical capsid assembly assay (fluorescence quenching)
T1 construct: fused on or other part: One added cysteine at position 150, labelled with BODIPY-FL maleimide; The C-terminal arginine-rich domain is absent
T1 sequence (P03146 whole entry, the tested form may be a part): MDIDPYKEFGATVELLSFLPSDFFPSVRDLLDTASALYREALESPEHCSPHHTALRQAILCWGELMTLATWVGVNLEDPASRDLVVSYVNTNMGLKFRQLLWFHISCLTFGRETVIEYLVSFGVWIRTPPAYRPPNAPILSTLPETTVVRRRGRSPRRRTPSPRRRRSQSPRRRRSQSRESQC
Description: Biochemical Capsid Assembly Assay
The screening for assembly effector activity was done based on a fluorescence quenching assay published by Zlotnick et al. (2007). The C-terminal truncated core protein containing 149 amino acids of the N-terminal assembly domain fused to a unique cysteine residue at position 150 and was expressed in E. coli using the pET expression system (Merck Chemicals, Darmstadt). Purification of core dimer protein was performed using a sequence of size exclusion chromatography steps. In brief, the cell pellet from 1 L BL21 (DE3) Rosetta2 culture expressing the coding sequence of core protein cloned NdeI/XhoI into expression plasmid pET21b was treated for 1 h on ice with a native lysis buffer (Qproteome Bacterial Protein Prep Kit; Qiagen, Hilden). After a centrifugation step the supernatant was precipitated during 2 h stirring on ice with 0.23 g/ml of solid ammonium sulfate. Following further centrifugation the resulting pellet was resolved in buffer A (100 mM Tris, pH 7.5; 100 mM NaCl; 2 mM DTT) and was subsequently loaded onto a buffer A equilibrated CaptoCore 700 column (GE HealthCare, Frankfurt). The column flow through containing the assembled HBV capsid was dialyzed against buffer N (50 mM NaHCO3 pH 9.6; 5 mM DTT) before urea was added to a final concentration of 3M to dissociate the capsid into core dimers for 1.5 h on ice. The protein solution was then loaded onto a 1 L Sephacryl 5300 column. After elution with buffer N core dimer containing fractions were identified by SDS-PAGE and subsequently pooled and dialyzed against 50 mM HEPES pH 7.5; 5 mM DTT. To improve the assembly capacity of the purified core dimers a second round of assembly and disassembly starting with the addition of 5 M NaCl and including the size exclusion chromatography steps described above was performed. From the last chromatography step core dimer containing fractions were pooled and stored in aliquots at concentrations between 1.5 to 2.0 mg/ml at −80° C.
Immediately before labelling the core protein was reduced by adding freshly prepared DTT in a final concentration of 20 mM. After 40 min incubation on ice storage buffer and DTT was removed using a Sephadex G-25 column (GE HealthCare, Frankfurt) and 50 mM HEPES, pH 7.5. For labelling 1.6 mg/ml core protein was incubated at 4° C. and darkness overnight with BODIPY-FL maleimide (Invitrogen, Karlsruhe) in a final concentration of 1 mM. After labelling the free dye was removed by an additional desalting step using a Sephadex G-25 column. Labelled core dimers were stored in aliquots at 4° C. In the dimeric state the fluorescence signal of the labelled core protein is high and is quenched during the assembly of the core dimers to high molecular capsid structures. The screening assay was performed in black 384 well microtiter plates in a total assay volume of 10 μl using 50 mM HEPES pH 7.5 and 1.0 to 2.0 μM labelled core protein. Each screening compound was added in 8 different concentrations using a 0.5 log-unit serial dilution starting at a final concentration of 100 μM, 31.6 μM or 10 μM, In any case the DMSO concentration over the entire microtiter plate was 0.5%. The assembly reaction was started by the injection of NaCl to a final concentration of […] which induces the assembly process to approximately 25% of the maximal quenched signal. […] after starting the reaction the fluorescence signal was measured using a Clariostar plate reader (BMG Labtech, Ortenberg) with an excitation of 477 nm and an emission of 525 nm. As 100% and 0% assembly control HEPES buffer containing 2.5 M and 0 M NaCl was used. Experiments were performed thrice in triplicates. EC50 values were calculated by non-linear regression analysis using the Graph Pad Prism 6 software (GraphPad Software, La Jolla, USA).

[2] = tested on: HBV; assay: HBV replication assay: HBV DNA from the supernatants of HepAD38 cells; assay type: cell-based; settings: Hepatitis B virus, 144 h, HBV DNA in supernatant at day 6, read-out: Cell Activity
Description: Determination of HBV DNA from the Supernatants of HepAD38 Cells
The anti-HBV activity was analysed in the stable transfected cell line HepAD38, which has been described to secrete high levels of HBV virion particles (Ladner et al., 1997). In brief, HepAD38 cells were cultured at 37° C. at 5% CO2 and 95% humidity in 200 μl maintenance medium, which was Dulbecco's modified Eagle's medium/Nutrient Mixture F-12 (Gibco, Karlsruhe), 10% fetal bovine serum (PAN Biotech Aidenbach) supplemented with 50 μg/ml penicillin/streptomycin (Gibco, Karlsruhe), 2 mM L-glutamine (PAN Biotech, Aidenbach), 400 μg/ml G418 (AppliChem, Darmstadt) and 0.3 μg/ml tetracycline. Cells were subcultured once a week in a 1:5 ratio, but were usually not passaged more than ten times. For the assay 60,000 cells were seeded in maintenance medium without any tetracycline into each well of a 96-well plate and treated with serial half-log dilutions of test compound. To minimize edge effects the outer 36 wells of the plate were not used but were filled with assay medium. On each assay plate six wells for the virus control (untreated HepAD38 cells) and six wells for the cell control (HepAD38 cells treated with 0.3 μg/ml tetracycline) were allocated, respectively. In addition, one plate set with reference inhibitors like BAY 41-4109, entecavir, and lamivudine instead of screening compounds were prepared in each experiment. In general, experiments were performed thrice in triplicates. At day 6 HBV DNA from 100 μl filtrated cell culture supernatant (AcroPrep Advance 96 Filter Plate, […] Supor membran, PALL GmbH, Dreieich) was automatically purified on the MagNa Pure LC instrument using the MagNA Pure 96 DNA and Viral NA Small Volume Kit (Roche Diagnostics, Mannheim) according to the instructions of the manufacturer. EC50 values were calculated from relative copy numbers of HBV DNA In brief, 5 μl of the 100 μl eluate containing HBV DNA were subjected to PCR LC480 Probes Master Kit (Roche) together with 1 μM antisense primer […], 0.5 μM sense primer […], 0.3 μM hybprobes […]-FL and LC640-[…]-PH (TIBMolBiol, Berlin) to a final volume of […]. The PCR was performed on the Light Cycler 480 real time system (Roche Diagnostics, Mannheim) using the following protocol: Pre-incubation for 1 min at 95° C., amplification: 40 cycles×(10 sec at 95° C., 50 sec at 60° C., 1 sec at 70° C.), cooling for 10 sec at 40° C. Viral load was quantitated against known standards using HBV plasmid DNA of pCH-9/3091 (Nassal et al., 1990, Cell 63: 1357-1363) and the LightCycler 480 SW 1.5 software (Roche Diagnostics, Mannheim) and EC50 values were calculated using non-linear regression with GraphPad Prism 6 (GraphPad Software Inc., La Jolla, USA).

[3] = Cell viability assay (AlamarBlue); settings: human, HepAD38 cells

Compound | IC50 [1] | EC50 [2] | CC50 at 6 days [3]
CCCCNC(=O)C(=O)N1CCN(C(=O)c2cc3c(F)cc(F)cc3[nH]2)CC1 [Example 9, N-butyl-2-(4-(4,6-difluoro-1H-indole-2-carbonyl)piperazin-1-yl)-2-oxoacetamide] | < 5 µM | < 1 µM | > 100 µM
CC(C)(C)NC(=O)C(=O)N1CCN(C(=O)c2cc3ccccc3[nH]2)CC1 [Example 52, N-tert-butyl-2-[4-(1H-indole-2-carbonyl)piperazin-1-yl]-2-oxoacetamide] | < 5 µM | < 1 µM | > 100 µM
O=C(NCC1(O)CCC1)C(=O)N1CCN(C(=O)c2cc3ccccc3[nH]2)CC1 [Example 30, 2-(4-(1H-indole-2-carbonyl)piperazin-1-yl)-N-((1-hydroxycyclobutyl)methyl)-2-oxoacetamide] | < 5 µM | < 1 µM | > 100 µM
CC1(CNC(=O)C(=O)N2CCN(C(=O)c3cc4ccccc4[nH]3)CC2)CCOC1 (centres unmarked) [Example 12, 2-[4-(1H-indole-2-carbonyl)piperazin-1-yl]-N-[(3-methyloxolan-3-yl)methyl]-2-oxoacetamide] | < 5 µM | < 1 µM | > 100 µM
CC(C)(CCO)CNC(=O)C(=O)N1CCN(C(=O)c2cc3c(F)cc(F)cc3[nH]2)CC1 [Example 61, 2-(4-(4,6-difluoro-1H-indole-2-carbonyl)piperazin-1-yl)-N-(4-hydroxy-2,2-dimethylbutyl)-2-oxoacetamide] | < 5 µM | < 1 µM | > 100 µM
O=C(NCC1(CO)CC1)C(=O)N1CCN(C(=O)c2cc3c(F)cc(F)cc3[nH]2)CC1 [Example 55, 2-(4-(4,6-difluoro-1H-indole-2-carbonyl)piperazin-1-yl)-N-((1-(hydroxymethyl)cyclopropyl)methyl)-2-oxoacetamide] | < 5 µM | < 1 µM | > 100 µM
O=C(NCC1(CO)CC1)C(=O)N1CCN(C(=O)c2cc3ccccc3[nH]2)CC1 [Example 31, 2-(4-(1H-indole-2-carbonyl)piperazin-1-yl)-N-((1-(hydroxymethyl)cyclopropyl)methyl)-2-oxoacetamide] | 5 to 10 µM | < 1 µM | > 100 µM
O=C(NCCCCCO)C(=O)N1CCN(C(=O)c2cc3c(F)cc(F)cc3[nH]2)CC1 [Example 57, 2-(4-(4,6-difluoro-1H-indole-2-carbonyl)piperazin-1-yl)-N-(5-hydroxypentyl)-2-oxoacetamide] | < 5 µM | 1 to 10 µM | > 100 µM
COC(C)CNC(=O)C(=O)N1CCN(C(=O)c2cc3c(F)cc(F)cc3[nH]2)CC1 (centres unmarked) [Example 63, 2-(4-(4,6-difluoro-1H-indole-2-carbonyl)piperazin-1-yl)-N-(2-methoxypropyl)-2-oxoacetamide] | < 5 µM | < 1 µM | > 100 µM
O=C(NCC1CCOC1)C(=O)N1CCN(C(=O)c2cc3ccccc3[nH]2)CC1 (centres unmarked) [Example 4, 2-(4-(1H-indole-2-carbonyl)piperazin-1-yl)-2-oxo-N-((tetrahydrofuran-3-yl)methyl)acetamide] | < 100 µM | 1 to 10 µM | > 100 µM
CC(O)CNC(=O)C(=O)N1CCN(C(=O)c2cc3ccccc3[nH]2)CC1 (centres unmarked) [Example 28, 2-(4-(1H-indole-2-carbonyl)piperazin-1-yl)-N-(2-hydroxypropyl)-2-oxoacetamide] | < 5 µM | < 1 µM | > 100 µM
CCCCNC(=O)C(=O)N1CCN(C(=O)c2cc3ccc(F)cc3[nH]2)CC1 [Example 23, N-butyl-2-(4-(6-fluoro-1H-indole-2-carbonyl)piperazin-1-yl)-2-oxoacetamide] | < 5 µM | < 1 µM | > 100 µM
CCCCNC(=O)C(=O)N1CCN(C(=O)c2cc3ccccc3[nH]2)CC1 [Example 6, N-butyl-2-[4-(1H-indole-2-carbonyl)piperazin-1-yl]-2-oxoacetamide] | < 5 µM | < 1 µM | > 100 µM
C[C@@H](O)CNC(=O)C(=O)N1CCN(C(=O)c2cc3ccccc3[nH]2)CC1 [Example 2, (R)-2-(4-(1H-indole-2-carbonyl)piperazin-1-yl)-N-(2-hydroxypropyl)-2-oxoacetamide] | 5 to 10 µM | 1 to 10 µM | > 100 µM
CCCCNC(=O)C(=O)N1CCN(C(=O)c2cc3cccc(C)c3[nH]2)CC1 [Example 24, N-butyl-2-(4-(7-methyl-1H-indole-2-carbonyl)piperazin-1-yl)-2-oxoacetamide] | – | < 1 µM | > 100 µM
O=C(Nc1cccc(Br)c1)C(=O)N1CCN(C(=O)c2cc3ccccc3[nH]2)CC1 [Example 1, N-(3-bromophenyl)-2-[4-(1H-indole-2-carbonyl)piperazin-1-yl]-2-oxoacetamide] | – | 1 to 10 µM | –
O=C(N[C@H]1CC[C@H](O)CC1)C(=O)N1CCN(C(=O)c2cc3ccccc3[nH]2)CC1 [Example 33, 2-(4-(1H-indole-2-carbonyl)piperazin-1-yl)-N-((1r,4r)-4-hydroxycyclohexyl)-2-oxoacetamide] | < 100 µM | – | –
CNC(=O)C1(CNC(=O)C(=O)N2CCN(C(=O)c3cc4ccccc4[nH]3)CC2)CCC1 [Example 22, 1-((2-(4-(1H-indole-2-carbonyl)piperazin-1-yl)-2-oxoacetamido)methyl)-N-methylcyclobutane-1-carboxamide] | < 100 µM | – | –
